The nature of assay [1]: cervical cancer cell viability loss – HeLa, 24 h, plate reader, powder samples, set 3, cytotoxicity control, dose response (AID 651864). Type of assay: functional, cell-based.
Assay [2] is described as follows: cytotoxicity in MITF-independent A375 cells – cell-based, CellTiter-Glo luminescence, dry powder, set 4, counter-screen for MITF inhibitor project, dose response (AID 624364).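 Also: A375 melanoma cells are MITF independent so this is a counter screen.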 Type of assay: functional. The following applies: A-375. Background: Cellular ATP, detected with luciferase, serves as a proxy for viable cell number.
A short description of assay [3]: viability loss in MITF-independent A375 cells – cell-based, CellTiter-Glo luminescence, dry powder, set 2, counter-screen for MITF inhibitor project, dose response (AID 624489).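 Also: actives are compounds lowering A375 viability meaning general cytotoxicity.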 Type of assay: functional. The following applies: A-375.
Assay [4] is described as follows: viability loss in HepG2 liver cells – cell-based, ATP luminescence, cherry-pick, set 6, cytotoxicity control, dose response (AID 1053125). Type of assay: functional.
Assay [5] is described as follows: cells. The following applies: HEK293.
The nature of assay [6]: inhibitors of non-replicating M. tuberculosis, dose response, luciferase, dry powder (AID 651619). Type of assay: functional. The following applies: Mycobacterium tuberculosis.
Assay [7] in a line: inhibitors of non-replicating M. tuberculosis, dose response, luciferase, dry powder (AID 651620). The conditions noted are these: Mycobacterium tuberculosis. The assay is classed as functional.
The nature of assay [8]: growth inhibition of replicating M. tuberculosis, dose response, counter-screen, dry powder, IC90 (AID 651617). Type of assay: functional. The following applies: Mycobacterium tuberculosis. (In general: The purpose of a counterscreen is to sort out artefacts and off-target activity.)
Assay [9] deals with Metabotropic glutamate receptor 3 (Rattus norvegicus, UniProt P31422). As to the kind of experiment: inhibition of rat mGlu3 glutamate signaling – HEK/GIRK cells, thallium flux, dose response (AID 651839). Type of assay: functional.
Assay [10] can be described thus: TNFa-induced NF-kB reporter signal decrease – HEK293 LMP1 reporter cells, dry powder, set 2, selectivity assay for EBV LMP1 NF-kB inhibitor project, dose response (AID 624369). Type of assay: functional.
The nature of assay [11]: viability loss in LCL cells – cell-based, plate reader, dry powder, set 2, cytotoxicity control, dose response (AID 624367). Type of assay: functional.
For the next assay, the target named is Paired box protein Pax-8 (Homo sapiens, UniProt Q06710). Briefly: PAX8 transcriptional activity inhibition in RMG-I – RMG-I cells, luciferase, cherry-pick, dose response (AID 687027).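 Also: luciferase reporter driven by Pax8 target thyroperoxidase promoter measured by SteadyGlo luminescence.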 Type of assay: functional, cell-based.
Assay [12] can be described thus: A2780 cell killing – plate reader, dry powder samples, cytotoxicity control, dose response (AID 743046). The assay is classed as functional, cell-based.
Assay [13] is described as follows: kidney cell line viability loss – HEK293T, luminescence plate reader, powder samples, set 4, cytotoxicity control, dose response (AID 651863). The assay is classed as functional, cell-based. The following applies: HEK293.
The target of assay [14] is Delta-type opioid receptor (Homo sapiens, UniProt P41143). As to the kind of experiment: Late-stage results from the probe development effort to identify antagonists of OPRK1: fluorescence-based cell-based dose response OPRD1 counterscreen. Type of assay: functional.
Another assay deals with Mu-type opioid receptor (Homo sapiens, UniProt P35372). As to the kind of experiment: Late-stage results from the probe development effort to identify antagonists of OPRK1: luminescence-based cell-based dose response OPRM1 counterscreen. The assay is classed as functional.
The nature of assay [15]: viability loss in A549 lung cancer cells – cell-based, cherry-picks, […], cytotoxicity control, dose response (AID 1053119). The assay is classed as functional.
A further assay concerns the target Albumin (Bos taurus, UniProt P02769). Briefly: Counterscreen for inhibitors of T-cell receptor (TCR)-CD3 interaction: Fluorescence-based biochemical high throughput dose response assay to identify inhibitors of T-cell receptor (TCR)-CD3 interaction using a TAMRA-labeled BSA probe. The assay is classed as functional.
Assay [16] addresses Protein disulfide-isomerase A6 (Homo sapiens, UniProt Q15084). As to the kind of experiment: Secondary Assay for Selectivity of PDI Inhibitors (against ERp5) Measured in Biochemical System Using Plate Reader - 2137-04_Inhibitor_Dose_DryPowder_Activity_Set3.
Assay [17] in a line: loss of viability in HeLa cells – cell-based, ATP luminescence, dry powder, cytotoxicity control, dose response (AID 652117). The assay is classed as functional.
The target in assay [18] is Protein disulfide-isomerase (Homo sapiens, UniProt P07237). Briefly: inhibition of PDI-mediated insulin reduction – biochemical, turbidity, dry powder samples, set 2, confirmation (AID 652146).
The nature of assay [19]: potency of ADAM10 substrate cleavage blockers – biochemical, QFRET, dose response (AID 743254).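 Also: ADAM10 enzyme with the DM2 quenched FRET peptide as substrate; EDANS fluorescence gain as the protease cuts the substrate; inhibitor potency against ADAM10 proteolytic activity.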
Assay [20] deals with Disintegrin and metalloproteinase domain-containing protein 17 (Homo sapiens, UniProt P78536). Briefly: inhibition of ADAM17 substrate cleavage – biochemical, quenched FRET substrate, counter-screen for ADAM10 exosite inhibitor project, dose response (AID 743253).
The test system of another assay is Vero. As to the kind of experiment: viability loss in Vero cells – cell-based, plate reader, cherry-pick samples, cytotoxicity control, dose response (AID 687020). The conditions noted are these: Chlorocebus sabaeus. Type of assay: functional.
For the next assay, the system named is BHK-21. As to the kind of experiment: viability loss in BHK-21 cells – cell-based, plate reader, cherry-pick samples, cytotoxicity control, dose response (AID 687030). Type of assay: functional. The following applies: Mesocricetus auratus.
The subject of another assay is A549. Briefly: viability loss in A549 cells – cell-based, plate reader, cherry-pick samples, cytotoxicity control, dose response (AID 687028). Type of assay: functional. The following applies: Homo sapiens.
Assay [21] can be described thus: cells. Type of assay: functional, cell-based.
Assay [22] concerns the target T1, Trace amine-associated receptor 1 (Homo sapiens, UniProt Q96RJ0). Briefly: Fluorescence-based cell-based high throughput dose response assay to identify agonists of the human trace amine associated receptor 1 (TAAR1). The assay is classed as functional.
Assay [23] deals with T1, Trace amine-associated receptor 1. Briefly: Counterscreen for agonists of the human trace amine associated receptor 1 (hTAAR1): Fluorescence-based cell-based high throughput dose response assay to identify hTAAR1 agonist that also desensitize TAAR1 receptor response. Type of assay: functional.
The nature of assay [24]: cells. The assay is classed as functional, cell-based. This is another data set of the same source.

Each structure is given as a SMILES string. Activity calls are given as the source filed them. A value given as a limit tells only on which side of the number the result lay.

T1 sequence (Q96RJ0 whole entry): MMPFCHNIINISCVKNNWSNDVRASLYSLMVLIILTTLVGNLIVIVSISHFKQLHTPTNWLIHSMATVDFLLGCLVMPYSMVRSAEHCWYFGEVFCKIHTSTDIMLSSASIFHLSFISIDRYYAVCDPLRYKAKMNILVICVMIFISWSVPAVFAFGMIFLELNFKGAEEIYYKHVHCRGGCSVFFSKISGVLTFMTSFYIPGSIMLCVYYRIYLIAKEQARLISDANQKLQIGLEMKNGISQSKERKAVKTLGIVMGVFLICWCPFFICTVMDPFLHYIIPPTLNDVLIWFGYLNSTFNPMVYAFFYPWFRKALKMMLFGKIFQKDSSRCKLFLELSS
Metabotropic glutamate receptor 3, sequence (P31422 whole entry): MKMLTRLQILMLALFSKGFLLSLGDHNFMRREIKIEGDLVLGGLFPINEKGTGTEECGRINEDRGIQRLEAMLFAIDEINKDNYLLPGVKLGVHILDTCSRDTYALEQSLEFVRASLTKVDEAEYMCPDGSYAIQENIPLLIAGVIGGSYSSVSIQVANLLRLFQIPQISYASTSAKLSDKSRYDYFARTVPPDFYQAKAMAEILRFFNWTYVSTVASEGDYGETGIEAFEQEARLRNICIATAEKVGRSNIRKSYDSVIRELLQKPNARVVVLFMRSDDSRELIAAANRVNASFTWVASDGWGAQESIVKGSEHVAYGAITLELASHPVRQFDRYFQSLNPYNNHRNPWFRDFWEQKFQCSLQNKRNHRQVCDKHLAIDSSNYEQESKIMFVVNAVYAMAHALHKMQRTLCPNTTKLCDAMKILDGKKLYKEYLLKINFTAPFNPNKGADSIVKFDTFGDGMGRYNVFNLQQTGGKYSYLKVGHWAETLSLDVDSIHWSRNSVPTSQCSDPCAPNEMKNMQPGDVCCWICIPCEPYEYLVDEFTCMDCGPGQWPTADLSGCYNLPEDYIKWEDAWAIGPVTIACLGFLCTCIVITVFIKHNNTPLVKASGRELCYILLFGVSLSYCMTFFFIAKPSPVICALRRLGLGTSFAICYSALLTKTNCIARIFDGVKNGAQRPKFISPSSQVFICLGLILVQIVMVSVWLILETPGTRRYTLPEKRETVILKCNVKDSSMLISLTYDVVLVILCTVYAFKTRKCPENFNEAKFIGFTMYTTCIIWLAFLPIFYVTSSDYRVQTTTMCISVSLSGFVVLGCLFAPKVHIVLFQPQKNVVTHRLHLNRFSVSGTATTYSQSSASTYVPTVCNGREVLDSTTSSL
Delta-type opioid receptor, sequence (P41143 whole entry): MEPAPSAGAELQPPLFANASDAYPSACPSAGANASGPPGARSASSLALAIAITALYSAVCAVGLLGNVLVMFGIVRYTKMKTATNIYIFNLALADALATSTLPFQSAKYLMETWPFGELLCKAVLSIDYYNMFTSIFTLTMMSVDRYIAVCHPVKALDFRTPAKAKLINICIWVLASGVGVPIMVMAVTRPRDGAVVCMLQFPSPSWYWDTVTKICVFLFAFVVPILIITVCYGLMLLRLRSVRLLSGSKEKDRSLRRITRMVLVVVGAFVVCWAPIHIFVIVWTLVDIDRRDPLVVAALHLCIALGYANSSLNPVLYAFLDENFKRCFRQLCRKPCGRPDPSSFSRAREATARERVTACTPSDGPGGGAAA
Albumin, sequence (P02769 whole entry): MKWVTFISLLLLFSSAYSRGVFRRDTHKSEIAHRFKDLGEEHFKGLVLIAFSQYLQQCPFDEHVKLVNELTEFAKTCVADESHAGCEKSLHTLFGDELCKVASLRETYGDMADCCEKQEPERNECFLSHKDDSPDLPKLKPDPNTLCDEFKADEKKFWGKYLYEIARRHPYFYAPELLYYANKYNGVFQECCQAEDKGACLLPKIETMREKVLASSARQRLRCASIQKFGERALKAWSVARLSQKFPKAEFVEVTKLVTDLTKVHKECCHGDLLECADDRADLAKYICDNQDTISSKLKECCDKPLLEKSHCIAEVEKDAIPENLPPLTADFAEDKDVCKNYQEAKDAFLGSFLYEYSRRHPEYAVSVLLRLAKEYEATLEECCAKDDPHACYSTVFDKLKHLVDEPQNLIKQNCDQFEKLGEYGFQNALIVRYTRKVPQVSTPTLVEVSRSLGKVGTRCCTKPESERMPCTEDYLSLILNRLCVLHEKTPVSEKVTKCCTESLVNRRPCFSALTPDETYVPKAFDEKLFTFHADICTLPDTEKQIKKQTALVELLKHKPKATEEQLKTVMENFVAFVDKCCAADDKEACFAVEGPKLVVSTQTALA
Mu-type opioid receptor, sequence (P35372 whole entry): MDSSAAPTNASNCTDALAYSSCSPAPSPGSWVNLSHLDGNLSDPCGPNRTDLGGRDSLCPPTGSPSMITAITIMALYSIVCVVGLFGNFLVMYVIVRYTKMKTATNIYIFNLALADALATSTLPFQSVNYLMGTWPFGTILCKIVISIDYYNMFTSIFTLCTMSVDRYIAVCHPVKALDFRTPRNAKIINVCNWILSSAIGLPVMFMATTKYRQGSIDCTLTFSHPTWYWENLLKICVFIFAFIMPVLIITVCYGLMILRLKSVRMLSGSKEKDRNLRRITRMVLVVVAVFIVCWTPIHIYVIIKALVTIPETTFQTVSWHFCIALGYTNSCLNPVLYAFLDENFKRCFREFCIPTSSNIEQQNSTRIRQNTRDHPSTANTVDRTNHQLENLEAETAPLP
Protein disulfide-isomerase, sequence (P07237 whole entry): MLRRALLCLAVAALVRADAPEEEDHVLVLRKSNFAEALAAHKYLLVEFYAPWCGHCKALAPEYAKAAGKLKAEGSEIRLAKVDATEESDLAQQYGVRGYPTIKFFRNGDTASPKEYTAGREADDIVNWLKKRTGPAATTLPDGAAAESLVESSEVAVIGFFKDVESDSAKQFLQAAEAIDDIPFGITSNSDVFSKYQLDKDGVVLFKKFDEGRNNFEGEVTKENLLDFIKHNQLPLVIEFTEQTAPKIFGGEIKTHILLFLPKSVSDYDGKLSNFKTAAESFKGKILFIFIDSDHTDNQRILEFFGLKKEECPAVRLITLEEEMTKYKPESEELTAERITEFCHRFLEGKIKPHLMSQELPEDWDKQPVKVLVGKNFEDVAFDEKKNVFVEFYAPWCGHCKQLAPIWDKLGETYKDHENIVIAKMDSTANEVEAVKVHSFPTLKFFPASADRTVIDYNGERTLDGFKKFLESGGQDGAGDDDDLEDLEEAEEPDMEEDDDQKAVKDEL
Disintegrin and metalloproteinase domain-containing protein 17, sequence (P78536 whole entry, the tested form may be a part): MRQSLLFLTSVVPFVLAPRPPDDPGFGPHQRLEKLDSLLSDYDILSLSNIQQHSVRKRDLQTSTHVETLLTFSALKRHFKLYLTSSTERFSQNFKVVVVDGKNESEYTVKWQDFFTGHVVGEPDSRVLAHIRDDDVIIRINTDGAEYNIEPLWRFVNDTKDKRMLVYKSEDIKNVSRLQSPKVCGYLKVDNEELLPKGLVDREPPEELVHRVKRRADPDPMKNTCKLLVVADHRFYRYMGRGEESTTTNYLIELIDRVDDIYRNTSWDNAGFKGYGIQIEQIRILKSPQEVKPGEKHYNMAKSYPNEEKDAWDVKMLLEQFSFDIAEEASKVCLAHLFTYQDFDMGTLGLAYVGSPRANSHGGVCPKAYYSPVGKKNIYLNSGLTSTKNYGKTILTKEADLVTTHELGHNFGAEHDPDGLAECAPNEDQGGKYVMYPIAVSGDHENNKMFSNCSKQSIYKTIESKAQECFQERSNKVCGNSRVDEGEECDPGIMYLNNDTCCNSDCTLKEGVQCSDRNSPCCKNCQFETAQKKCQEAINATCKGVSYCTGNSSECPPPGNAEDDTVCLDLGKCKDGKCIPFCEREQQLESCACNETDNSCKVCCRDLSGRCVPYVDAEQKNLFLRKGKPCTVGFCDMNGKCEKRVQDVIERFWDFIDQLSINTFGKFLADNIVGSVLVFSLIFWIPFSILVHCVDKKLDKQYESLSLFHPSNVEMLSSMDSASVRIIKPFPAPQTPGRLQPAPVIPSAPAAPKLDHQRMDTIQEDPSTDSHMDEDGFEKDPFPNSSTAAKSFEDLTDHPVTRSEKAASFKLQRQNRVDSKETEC
Protein disulfide-isomerase A6, sequence (Q15084 whole entry): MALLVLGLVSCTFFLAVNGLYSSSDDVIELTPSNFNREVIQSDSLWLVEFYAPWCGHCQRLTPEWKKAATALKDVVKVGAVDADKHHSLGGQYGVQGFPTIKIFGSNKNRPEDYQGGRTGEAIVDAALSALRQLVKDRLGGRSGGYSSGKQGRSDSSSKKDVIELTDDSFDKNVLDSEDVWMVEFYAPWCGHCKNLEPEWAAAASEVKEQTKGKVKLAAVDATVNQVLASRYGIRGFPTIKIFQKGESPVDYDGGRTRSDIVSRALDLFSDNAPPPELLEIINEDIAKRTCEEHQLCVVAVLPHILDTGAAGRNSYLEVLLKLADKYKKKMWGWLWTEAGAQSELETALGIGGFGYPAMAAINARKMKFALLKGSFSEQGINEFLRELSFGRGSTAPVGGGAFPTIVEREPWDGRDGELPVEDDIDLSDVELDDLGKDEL
Paired box protein Pax-8, sequence (Q06710 whole entry): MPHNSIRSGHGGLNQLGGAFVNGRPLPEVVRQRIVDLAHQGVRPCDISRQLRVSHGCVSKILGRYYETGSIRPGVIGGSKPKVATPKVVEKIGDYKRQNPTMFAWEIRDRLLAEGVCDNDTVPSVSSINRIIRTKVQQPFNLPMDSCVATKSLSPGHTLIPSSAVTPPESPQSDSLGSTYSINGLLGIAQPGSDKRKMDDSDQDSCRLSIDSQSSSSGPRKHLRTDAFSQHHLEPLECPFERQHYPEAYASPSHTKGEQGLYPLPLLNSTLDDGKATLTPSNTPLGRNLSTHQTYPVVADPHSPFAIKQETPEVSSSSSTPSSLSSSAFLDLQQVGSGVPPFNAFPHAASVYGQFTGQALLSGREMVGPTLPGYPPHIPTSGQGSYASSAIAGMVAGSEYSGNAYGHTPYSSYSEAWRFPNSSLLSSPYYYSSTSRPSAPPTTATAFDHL

In the case of `O=C(Cc1ccc(-c2ccccc2)cc1)NC1CCCCC1`, the AC50 in [1] is 109 µM (active).

`O=C1C(NS(=O)(=O)c2ccc(Br)cc2)=C(c2ccc(OC(F)(F)F)cc2)C(=O)c2ccccc21`: the AC50 in assay [2] and in assay [3] was > 70 µM (inactive) in each case.

Regarding `CC/C(C)=N\Nc1nc(-c2cc3cc(OC)ccc3oc2=O)cs1`, the AC50 (in assay [4]; in the assay “cells [5]”) was > 52 µM (inactive) each time.

As for `c1ccc(-c2nnc(SCc3ccccn3)o2)cc1`, the IC90 is 4 µM (active) in assay [6], 4 µM (active) in assay [7] and 16 µM (active) in assay [8].

Regarding `COc1ccc(C#Cc2ccc(C(=O)N3CC[C@@H](O)C3)cc2)cc1`, in assay [9], the IC50 is 6.34 µM (active).

Turning to `O=C(Nc1ccc(C(F)(F)F)cc1)Nc1ccc2c(c1)[C@H]1C[C@H](CC(=O)N3CCc4ccccc4C3)O[C@H](CO)[C@H]1O2`, the figures for the AbsAC35 in [10] and in assay [11] were 66.25 µM and 42.44 µM, respectively. The AC50 is 7.26 µM (active) at Paired box protein Pax-8 and 57.4 µM (active) in assay [12].

For the compound `O=C(O)C1CCCCC1C(=O)N1CCc2ccccc2C1CN1C(=O)[C@H]2CCCC[C@H]2C1=O` (stereo not given in full), the AC50 in assay [13] is > 52 µM (inactive).

Consider `COC(=O)c1cc(Cl)cnc1N1CCC(NC2CCCCC2)CC1`, for which the IC50 was 39 µM (inactive) in assay [14] and 2 µM (active) at Mu-type opioid receptor.

Consider `O=C(CN1CCCC1)Nc1ccc(Oc2ccc(NC(=O)CN3CCCC3)cc2)cc1`, for which the AC50 in assay [15] is > 52 µM (inactive).

`CN=C(S)NNC(=O)c1cccn(Cc2cccc(C(F)(F)F)c2)c1=O`: the IC50 on Albumin is > 94.1 µM (inactive).

With `CC(C)(C)OC(=O)C1(CCOc2ccccc2)CCN(Cc2ccc(O)c(Cl)c2)CC1`, the AC50 in [16] was 30 µM (inactive); in [17] it was 34 µM (active); in assay [18], 0.6 µM (active).

In the case of `O=C1NCN(c2ccccc2)C12CCN(C(c1cccc3ccccc13)c1nnnn1Cc1ccccc1)CC2` (stereo not given), the IC50 in [19] and in [20] was > 69.5 µM (inactive) each time.

On to `CCCCN(C(C)=O)c1ccc2c(c1)C1CC2CCN1Cc1ccccc1` (stereo not given), for which the AC50 in the assay with Vero is 30.5 µM (active); with BHK-21, 33.7 µM (active); with A549, 30.3 µM (active).

`O=C(CSC1=Nc2ccc(F)cc2S(=O)(=O)N1)NCCc1ccccc1`: the IC50 is > 29.9 µM (inactive) in the assay “cells [21]” and 3.52 µM (active) in assay [23]. Moreover, the EC50 in assay [22] is 0.621 µM (active); in “cells [24]” it was > 29.9 µM (inactive).

As a reminder, the AC50 is the concentration at which the activity in the assay is half-maximal. As usually defined, the IC90 is the concentration needed for an effect of 90%. One may read the IC50 as the concentration that inhibits the measured activity by half. In general, EC50 refers to the concentration giving half of the maximal effect.

(Values after ChEMBL document CHEMBL1201862, “PubChem BioAssay data set” (2004).)
